The values that follow come from patent US20120282676A1, “Compositions and Methods for Enhancing Lipid Production in Marine Microalgae” (Old Queens, priority 2011, published 2012).

Assay [1] deals with nitrate reductase (NR) protein. Kind of assay: NR western-blot. It is filed as cell-based, Phaeodactylum tricornutum. Conditions: FIG. 2. On the procedure: Protein concentrations were determined with the bicinchoninic acid method (BCA, Pierce). […] Blots were probed for 1 h with anti-NR assimilatory (1:500) purchased from Agrisera (part no. AS08-310). Subsequently, an HRP-conjugated polyclonal goat anti-rabbit IgC antibody (Pierce, 1:10000) was used followed by chemifluorescence detection (Amersham™ ECL Plus, RPN2132). Image acquisition was performed with a molecular imager XR+ system (BIORAD, USA).

Assay [2] has as its system Phaeodactylum tricornutum. Kind of assay: Fatty acids extraction and analysis (FAME, GC-FID). The format is cell-based. Conditions: for more fatty acid per cell than the control: relative to NO3− replete cells (control). On the procedure:
Fatty acid methyl esters (FAME) extraction and methylation was based on a method developed by Rodriguez-Ruiz et al., 1998. […] The vials were sealed with a Teflon-lined cap and boiled in a water-bath for 1 h. After incubation the vials were cooled to room temperature and 1 ml of milliQ water was added to each sample. Samples were vortexed and centrifuged (5 min, 3000 rpm) to allow phase separation and the top […] phases were transferred with glass-pipettes to GC vials with Teflon-lined caps (Fisher Scientific). FAME analyses were performed in a gas-chromatographer (GC 2010 Shimadzu, Japan) equipped with a TR-FAME (0.25 μm×60 m) column (Thermo electron corporation, USA) and a flame ionization detector (FID). Helium was used as the carrier gas at 26 psi. The injector and detector temperatures were 240° C. and 250° C. respectively. The time-oven temperature program was: 140° C. (5 min) increasing up to 240° C. at 4° C.·min^-1. FAMEs were identified by reference to authentic standards (SupelcoTM 37 component FAME, Sigma-Aldrich) processed and analyzed under the same conditions.

In assay [3] the test system is Phaeodactylum tricornutum. Conditions: preliminary LC-MS analyses, FIG. 6. From the text:
FIG. 6. Liquid-chromatography mass-spectrometry (LC-MS) plot representing the relative content of triacylglycerides (TAG) species between cells growing with nitrate or ammonium as nitrogen sources. Total lipids from P. tricronutum cells growing with nitrate or ammonium as nitrogen source (from the experiments described in the main text) were extracted with the Bligh-Dyer method (Bligh and Dyer) and analysed by liquid-chromatography mass-spectrometry (LC-MS).

The subject of assay [4] is Phaeodactylum tricornutum. Kind of assay: Lipid body imaging (BODIPY, epifluorescence microscopy). The format is cell-based. Conditions: BODIPY staining, FIG. 4. On the procedure: Intracellular lipid bodies were stained with 10 μg·ml^-1 BODIPY (4,4-difluoro-3a, 4a-diaza-s-indacene) probe (D-3922, Molecular Probes, Invitrogen, USA). Cells were subsequently observed with an inverted epifluorescence microscope Olympus IX71 (Olympus, Japan) equipped with a mercury X-CITE 120 lamp (EXFO, Canada), using the 482/536 nm excitation/emission filter. Images were acquired with a […] high-speed monochromatic cooled CCD camera system and IPLab for Mac (v3.9) for image processing and analysis.

For assay [5], the system named is Phaeodactylum tricornutum. In words: Growth of P. tricornutum cultures in different nitrogen regimes (cell densities, Coulter counter). The format is cell-based. Conditions: relative to the control (NO3+Mo). The method, then:
This was also the reason to perform all experiments in artificial medium. […] During the period of acclimation the cultures were maintained at 18° C., under continuous light using liner cool fluorescent lamps emitting white light at 300 μmol quanta·m^-2·s^-1, and 0.2 μm filtered air bubbling. Periodic dilutions with fresh media were also executed to main the cells in exponential phase of growth. […] The light intensity and temperature were maintained as described above. After 3 days (72 h) of growth samples were collected and processed for further analyses (described bellow). Experiments were performed at least in triplicate. The cellular densities were monitored with a Coulter counter multisizer 3 (Beckman Coulter Inc, Fullerton, Calif., USA).

Assay [6] concerns Phaeodactylum tricornutum. Kind of assay: Metabolite profiling (LC-MS/MS). The format is cell-based. The note with it: W-mediated NR inactivation of NO3− grown cells. On the procedure:
Metabolite profiles were obtained via the method described by Bennette et al. (2010). Cells were quenched via rapid filtration of 14.3 million cells followed by immediate transfer of filters to 1.8 mL of 80:20 methanol:water at −20° C. in 35×10 mm Petri dishes. Filters were incubated at −20° C. for 15 minutes and scraped clean of cells in the extraction solvent. The 1.8 mL of extraction solvent with cells was transferred to 2 mL eppendorf tubes, followed by a 0.25 mL 80:20 methanol:water at −20° C. wash of the filter to collect remaining quenched cell material. The eppendorf tubes were spun at 4° C., and supernatant was collected. To the cell pellet, 100 μL 80:20 methanol:water at −20° C. was added, vortexed, incubated at −20° C. for 15 minutes, and pelletted. The 100 μL was combined with the original supernatant, and 50 μL transferred to GC vials. […] Standards for each metabolite, run with sample background, were used for quantification. The column used was a Synergi 2.5μ hydro RP 100A, size 100×2 mm (Phenomonex, Torrance, Calif., USA).

For assay [7], the system named is Selenastrum capricornutum. The note with it: sodium tungsten in small concentration (≦400 μM); Strigul et al. 2009; cited from earlier work.

As to `Cl.N` [NH4+, NH4Cl], the “NR protein band (approximately 100 kDa) in western-blot” value in assay [1] is “weak band”. In the assay on Dunaliella terciolecta (D. terciolecta, NH4+ as nitrogen source), the “more total fatty acid than with NO3−” value is 13%. Further, the “more fatty acid per cell than the control” value in assay [2] (3 days) is not below 40%. Moreover, the “TAG species relative to NO3− grown cells” value in assay [3] was “all TAG species of P. tricornutum NH4+ grown cells increase”. Also, the “number of lipid bodies per cell” value in assay [4] is reported as “very high numbers”. The “decrease of growth rate” value in assay [5] turned out to be 10%.
As to `[Na+].[Na+].[O]=[W](=[O])([O-])[O-]` [W, sodium tungsten], the average growth rate result in the assay on Dunaliella terciolecta (D. terciolecta, W in conjunction with NH4+) is recorded as “increased the average growth rate”. Further, in the assay with Dunaliella terciolecta (D. terciolecta, W in conjunction with NH4+, after 3 days, FIG. 7), the “more fatty acid per unit volume than nitrate-grown cultures” value came out at 88%. Also, the “higher rates of lipid production per unit biomass than in controlled conditions” value with Dunaliella terciolecta (tungsten in combination with ammonium, organism not given) was determined as 87%. Moreover, the “Fatty acids cell^−1 (total fatty acid)” value in assay [2] (P. tricornutum, 3 days, mean ± SD, n ≧ 3) is 3.99 ± 0.24 pg. Also, the “higher rate of fatty acid accumulated per unit volume” value in assay [2] (W added to NH4+ growing cultures, compared to all the other situations, FIG. 1B) is on record as “over 30%”. The “more fatty acid per cell than the control” value in assay [2] (3 days) is given as 40%. In addition, the “glutamate and glutamine levels, share of control levels” value in assay [6] is recorded as “about 10%”. Moreover, the effect on growth result in assay [7] is given as “stimulated growth”.
